We go through one compound from article PMC6272399, “Anti-Proliferative Effect and Induction of Apoptosis in Androgen-Independent Human Prostate Cancer Cells by 1,5-Bis(2-hydroxyphenyl)-1,4-pentadiene-3-one” (Molecules, 2015).

Assay [1] has as its system caspase-3 activity in DU 145 cells. Briefly: Caspase-3 colorimetric activity assay, DU 145. The format is cell-based, human. The method, then: Caspase-3 activity was determined using the caspase-3 colorimetric assay kit (Sigma-Aldrich) according to manufacturer’s protocol. The assay is based on spectrophotometric detection of p-nitroanilide (pNA) a colored molecule, after its cleavage from the labeled substrate DEVD-pNA by the activity of caspase-3 enzyme. PC-3 and DU 145 cells were treated with MS17 at different concentrations (EC50, 2 × EC50, 3 × EC50) at various time points, 6, 12, 24, 48 and 72 h as appropriate. Following treatment, cells were washed with PBS and suspended with lysis buffer (50 mM HEPES, pH 7.4, 5 mM CHAPS, 5 mM DTT) for 30 min on ice at the concentration of 10^7 cells per 100 µL buffer. Cells were then spun for 30 min at 16,000× g, 4 °C. Protein lysate concentrations were measured based on the Bradford assay method using the Cayman Chemical protein determination kit (Cayman Chemical Company, Ann Arbor, MI, USA) based on the manufacturer’s protocol. Assay was performed on a 96-well micro-titer plate by adding equal amount of protein lysate (~100 µg) into wells containing the assay buffer (20 mM HEPES pH 7.4, 0.1% CHAPS, 5 mM DTT, 2 mM EDTA). Reaction was started by the addition of 10 µL of substrate Ac-DEVD-pNA (2 mM). The effect of Ac-DEVD-CHO, a caspase-3 inhibitor was also studied simultaneously on caspase-3 activity. Ten microliter of the inhibitor (200 µM) was added into the wells containing the protein lysate, assay buffer and the substrate. Caspase-3 activity was measured upon the release of pNA molecule, a pale yellow colored product using the micro-plate ELISA reader (Bio-Rad) at the wavelength of 405 nm. Relative caspase-3 activity was expressed as absorbance of enzyme activity compared with the control (untreated cells/DMSO only) based on the equation below: Relative caspase 3 activity= Absorbance of treated cells /Absorbance of control

The next assay relates to PC-3 cells. Briefly: BrdU cell proliferation assay, PC-3. Particulars: PC-3, BrdU. The format is cell-based, human. The method, then: The anti-proliferative effects of compound on treated cells, was measured using the BrdU cell proliferation assay kit (Roche Applied Science Diagnostics, Indianapolis, IN, USA) according to the manufacturer’s protocol. The assay was based on incorporation of BrdU during DNA synthesis in proliferating cells. Cells were plated at a concentration of 10^4 cells/mL in a 96-well microtiter plate and incubated overnight. The cells were treated with compounds and curcumin (concentrations ranging from 1.56 µM–100 µM) as positive control for 24, 48 and 72 h respectively. Then, BrdU labeling solution (5 µL, diluted by 1/100 in culture media) was added to each well and incubated for 2 h at 37 °C. The media was replaced with fix/denaturing solution (100 µL) and incubated for 30 min at room temperature. Then, the fix/denaturing solution was removed by tapping off and followed by addition of 50 µL anti-BrdU antibody (50 µL, diluted by 1/100 in dilution buffer) to each well and further incubated for another 90 min at room temperature. Next, the cells were washed 3 times with wash buffer and substrate solution (50 µL) was added to each well. The plate was left for 10 min at room temperature in the dark and the absorbance was measured at a wavelength of 370 nm with a reference wavelength of 492 nm using a micro-plate ELISA reader (Bio-Rad). The percentage of BrdU incorporation was determined based on the ratio of absorbance of sample treated-cells to absorbance of control (untreated cells/DMSO only) multiplied by 100.

Entries after “also recorded” stand apart in the source; their conditions may differ.

`O=C(C=Cc1ccccc1O)C=Cc1ccccc1O` [MS17, 1,5-bis(2-hydroxyphenyl)-1,4-pentadiene-3-one]: the “relative caspase-3 activity, differences between concentrations” value in assay [1] (DU 145, 6, 24, 48 and 72 h) was “no significant differences of caspase-3 activity”. In addition, the “relative caspase-3 activity (treated vs untreated)” value in assay [1] (DU 145, 12 h, significant at 8.4 and 12.6 µM compared to 4.2 µM) is reported as “increased significantly; also recorded: increase in caspase-3 activity”. The “concentration from which anti-proliferative activity is significant” value in the assay on PC-3 cells (24 h) came to 6.3 µM; with PC-3 cells (48 h), 12.5 µM; with PC-3 cells (72 h) it was 12.5 µM.
